Measured values: patent publication US20250347685A1, “DONOR-ACCEPTOR CONJUGATED OLIGOELECTROLYTES FOR CELL LABELLING AND METHODS THEREOF” (National University of Singapore, priority 2021, published 2025)

Legend:
[1] = system: SW480 exosomes; assay: NanoAnalyzer (NanoFCM) flow analysis of dye-labelled SW480 exosomes and dye only controls; settings: for % Positive for dye: after purifying excess dyes using ultracentrifugation; for Number of particle counts, positive / Number of particle counts, total: dye only controls
Method: In another example, exosomes isolated from SW480 colon cancer cell lines and purified using size exclusion chromatography were kindly provided by NanoFCM (UK). The labelling and flow cytometry analysis were also carried out by the trained technicians at NanoFCM (UK). […] The mixture was left to incubate at room temperature for 30 min and then diluted 100 times using PBS before analysis on the NanoAnalyzer (NanoFCM). Detection of the exosomes was carried out on the small threshold settings (68-155 S16M-Exo) and analysis of the labelled population was done on the PC5 channel (Ex488/Em670). Dye control samples were prepared by replacing the 9 μL exosome solution with PBS, followed by the same steps as the exosome samples for flow analysis. The results were validated through at least two replicates. In a separate experiment, the labelled exosomes were also purified of excess dyes using standard ultracentrifugation methods before analyzing as per described above.

[2] = system: HCT 116 Exosomes; assay: Flow cytometry of exosomes labelled with COE compound
Method: Exosome were prepared via the following protocol: Exosomes were purchased from ATCC, aliquoted and stored at −80° C. A single aliquot was removed from −80° C. and placed on ice. Exosomes were diluted 10 times in cell culture grade PBS. 8 μL of the exosome suspension was mixed with between […] of COE compound. This was placed on ice for 10-minutes before being diluted 100 times in PBS to an approximate final concentration of 6×10^6 particles/mL of exosomes and 25-1 nM of COE.
Samples were briefly vortexed and used for flow cytometry. Flow cytometry measurements were obtained by measuring the side scattering on the violet laser (x-axis) and by measuring fluorescent intensity (y-axis: λexcitation=405, 488 nm λemission=525, 690 nm). […] Using the COE compound, the exosomes can be stained with a low concentration of dye and can be used directly without additional purification.

[3] = COE intercalation into lipid bilayer of SUVs, emission measured with a fluorimeter; format: physicochemical; settings: in PBS
Method: Liposomes were prepared using the protocol as follows. Phospholipids (ex. POPC, POPE, and POPG) in chloroform solution were mixed to a proper molar ratio and dried under a gentle stream of nitrogen. The dried lipids were further desiccated in a vacuum overnight to obtain a thin lipid film. For preparing small unilamellar vesicles (SUVs), rehydration of the dried film was carried out by adding phosphate buffered saline (PBS) to a concentration of 5 mg mL-1, followed by incubation at 35° C. for 2 h under constant stirring at ˜300 rpm. Then, the vesicles were extruded using a 100 nm membrane at 45° C. 21 times to obtain SUV samples. Vesicles were kept at 4° C. until further use.
When mixing the SUVs with COE-BT, the COE will intercalate into the lipid bilayers. This is spontaneously driven by the electrostatic and hydrophobic interactions between the COEs and the lipids. As a result, a significant emission enhancement is observed. For example, relative to the COE-BT solution, the emission intensity of the SUV and COE-BT complexes increases more than 400 times between 600 to 630 nm. […] By adjusting different chemical structures, the COEs can achieve different emission wavelengths, ranging from “green”, “red”, to even “infrared” (FIGS. 14 & 15). The various color choices confer COE dyes with high compatibility in using multiple dyes concurrently.

[4] = Dynamic light scattering of liposome size and uniformity after COE addition; format: physicochemical; settings: 10 μM COE into 1 mg/mL SUV samples
Method: To identify whether COE treatment will alter the morphology of liposomes (e.g., inducing the fusion or fission of liposomes), dynamic light scattering (DLS) measurements with a lipid SUV model were employed (FIG. 16). The SUVs were obtained after extrusion using a 100 nm membrane. […] After addition of 10 μM COE-BBT into the 1 mg/mL SUV samples, the Z-average size is 104.8±32.65 nm with a PDI of 0.054.

[5] = system: Red blood cells; assay: Flow cytometry of red blood cells from donor's blood labelled with dye; format: cell-based
Method: Red blood cells were obtained from donor's blood after removing the plasma via centrifugation. The RBC were either used fresh or stored for 22 days. […] The cells were incubated with the dyes for 10 min before centrifuging down at 700 g for 3 min to remove free dyes. The labelled cell pellet was then resuspended in 1 mL of PBS. The cells were then diluted 10× further in PBS before imaging on the 8-well ibidi chamber slides, and analysing for size and fluorescence on the flow cytometry (Cytoflex).

[6] = system: RBCs; assay: Flow cytometry of COE-stained and unstained red blood cells mixed at various ratios; format: cell-based, Bovine
Method: RBCs (isolated from Bovine whole blood, Innovative Research, Inc.) were diluted 10 times from stock into PBS and centrifuged at 3,000 RPM for 5 minutes. The supernatant was removed, and the pellet was resuspended in PBS. This was repeated for a total of 3 times. The final pellet was resuspended into PBS to be 1% by volume. […] COE compound was added to the RBC suspension and was allowed to incubate for 20 min at RT. The RBC COE compound mixture was then centrifuged again at 3,000 RPM for 5 min. The supernatant was removed and the pellet resuspended in fresh PBS. COE compound stained and unstained RBCs were respectively mixed at various ratios by volume of 0:5, 1:4, 2:3, 3:2, 4:1 and 5:0. The resulting RBC mixtures were diluted 100 times in PBS for flow cytometry experiments.

Row | SMILES | % Positive for dye ([1]; 10 uM) [%] | % Positive for dye ([1]; 20 uM) [%] | Number of particle counts, positive ([1]; 10 uM) | Number of particle counts, total ([1]; 10 uM) | % of events in Area of Interest ([2]; Exosome + COE) [%] | All Events/μL ([2]; Exosome + COE) [Events/μL] | Area of Interest Events/μL ([2]; Exosome + COE) [Events/μL] | % of events in Area of Interest ([2]; dye only, no exosomes) [%] | All Events/μL ([2]; dye only, no exosomes) [Events/μL] | Area of Interest Events/μL ([2]; dye only, no exosomes) [Events/μL] | also measured
1 | CCCCCCCCCCCCCCCCCCCCCC[N+]1=C(/C=C/C=C2/N(CCCCCCCCCCCCCC)c3ccccc3C2(C)C)C(C)(C)c2ccccc21.[I-] [PKH-26, reference compound] | 22.00 | 19.90 | 636 | 637 |  |  |  |  |  |  | 
2 | C[N+](C)(C)CCCCCCOc1cc(/C=C/c2ccc(-c3ccc(-c4ccc(-c5ccc(-c6ccc(/C=C/c7cc(OCCCCCC[N+](C)(C)C)c(OCCCCCC[N+](C)(C)C)c(OCCCCCC[N+](C)(C)C)c7)cc6)cc5)cc4)cc3)cc2)cc(OCCCCCC[N+](C)(C)C)c1OCCCCCC[N+](C)(C)C.[I-].[I-].[I-].[I-].[I-].[I-] [COE-Quin] |  |  |  |  | 63.71 | 6088.97 | 3878.99 | 7.98 | 1438.47 | 114.78 | 
3 | C[N+](C)(C)CCCCCCOc1cc(/C=C/c2ccc(-c3ccc(-c4ccc(-c5ccc(-c6ccc(/C=C/c7cc(OCCCCCC[N+](C)(C)C)c(OCCCCCC[N+](C)(C)C)c(OCCCCCC[N+](C)(C)C)c7)cc6)s5)cc4)s3)cc2)cc(OCCCCCC[N+](C)(C)C)c1OCCCCCC[N+](C)(C)C.[I-].[I-].[I-].[I-].[I-].[I-] [COE-Ben] |  |  |  |  | 54.69 | 6071.19 | 3314.72 | 6.72 | 1480.33 | 99.48 | 
4 | C[N+](C)(C)CCCCCCOc1cc(/C=C/c2ccc(-c3ccc(-c4ccc(-c5ccc(-c6ccc(/C=C/c7cc(OCCCCCC[N+](C)(C)C)c(OCCCCCC[N+](C)(C)C)c(OCCCCCC[N+](C)(C)C)c7)cc6)s5)c5nonc45)s3)cc2)cc(OCCCCCC[N+](C)(C)C)c1OCCCCCC[N+](C)(C)C.[Br-].[Br-].[Br-].[Br-].[Br-].[Br-] [COE-BO] | 43.10 | 47.60 | 2 | 181 |  |  |  |  |  |  | Percentage + (positive events) ([1]; labelled SW480 exosomes, 10 uM, N = 2): 66.55%
5 | C[N+](C)(C)CCCCCCOc1cc(/C=C/c2ccc(-c3ccc(-c4c5c(c(-c6ccc(-c7ccc(/C=C/c8cc(OCCCCCC[N+](C)(C)C)c(OCCCCCC[N+](C)(C)C)c(OCCCCCC[N+](C)(C)C)c8)cc7)s6)c6nsnc46)N=S=N5)s3)cc2)cc(OCCCCCC[N+](C)(C)C)c1OCCCCCC[N+](C)(C)C [COE-BBT] |  |  |  |  |  |  |  |  |  |  | emission enhancement after mixing with SUVs (in words) [3]: same phenomenon is seen; PDI of SUVs after COE addition [4]: 0.054; Z-average size of SUVs after COE addition [4]: 104.8±32.65 nm
6 | C[N+](C)(C)CCCCCCOc1cc(/C=C/c2ccc(/C=C/c3ccc(/C=C/c4ccc(/C=C/c5ccc(/C=C/c6cc(OCCCCCC[N+](C)(C)C)c(OCCCCCC[N+](C)(C)C)c(OCCCCCC[N+](C)(C)C)c6)cc5)cc4)cc3)cc2)cc(OCCCCCC[N+](C)(C)C)c1OCCCCCC[N+](C)(C)C.[I-].[I-].[I-].[I-].[I-].[I-] [COE-S6] |  |  |  |  | 63.67 | 5113.31 | 3255.41 | 1.41 | 2909.37 | 41.08 | artifact to the morphology of the RBC (FSC/SSC dot plots) ([5]; 1 μM COE-S6): does not introduce an artifact; change in fluorescence of RBCs labelled with increasing dye concentrations ([5]; histograms, FIG. 35 d-e): increase in fluorescence; homogeneity of RBC labelling (coefficient of variance of histogram data) ([5]; versus Cell Mask Deep Red): more homogeneous and uniform; RBC + COE-S6 Events/μL ([6]; stained to unstained RBCs 1:4): 207.2 Events/μL; RBC Events/μL ([6]; stained to unstained RBCs 1:4): 891.58 Events/μL; total events/μL ([6]; stained to unstained RBCs 1:4): 1098 events/μL; RBC + COE-S6 Events/μL ([6]; stained to unstained RBCs 2:3): 312.27 Events/μL; RBC Events/μL ([6]; stained to unstained RBCs 2:3): 812.03 Events/μL; total events/μL ([6]; stained to unstained RBCs 2:3): 1124 events/μL; RBC + COE-S6 Events/μL ([6]; stained to unstained RBCs 3:2): 767.09 Events/μL; RBC Events/μL ([6]; stained to unstained RBCs 3:2): 470.71 Events/μL; total events/μL ([6]; stained to unstained RBCs 3:2): 1237 events/μL; RBC + COE-S6 Events/μL ([6]; stained to unstained RBCs 4:1): 1039.71 Events/μL; RBC Events/μL ([6]; stained to unstained RBCs 4:1): 225.64 Events/μL; total events/μL ([6]; stained to unstained RBCs 4:1): 1265 events/μL; RBC + COE-S6 Events/μL ([6]; stained to unstained RBCs 5:0): 450.48 Events/μL; RBC Events/μL ([6]; stained to unstained RBCs 5:0): 2.98 Events/μL; total events/μL ([6]; stained to unstained RBCs 5:0): 453 events/μL
